Data as given in ChEMBL document CHEMBL1201862, “PubChem BioAssay data set” (2004).
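Each compound was tested at five concentrations against cells in 96-well plates for 48 hours. GI50 = concentration required for 50% inhibition of growth.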 Activity calls are given as the source filed them. Rule as the data show it: active = GI50 up to about 1.1 µM and inactive = higher.

Tests used:
Test in all cases: DTP human tumour cell line panel, 48 h
MDA-MB-231 = test system: MDA-MB-231
TK-10 = test system: TK-10
A498 = test system: A498
IGROV-1 = test system: IGROV-1
MOLT-4 = test system: MOLT-4
SNB-75 = test system: SNB-75
PC-3 = test system: PC-3
COLO 205 = test system: COLO 205
OVCAR-3 = test system: OVCAR-3
DU-145 = test system: DU-145
SF-295 = test system: SF-295
UACC-62 = test system: UACC-62
BT-549 = test system: BT-549
CAKI-1 = test system: CAKI-1
A549 = test system: A549
HCC 2998 = test system: HCC 2998
HL-60 = test system: HL-60
Hs-578T = test system: Hs-578T
U-251 = test system: U-251
NCI-H522 = test system: NCI-H522
SNB-19 = test system: SNB-19
SK-MEL-28 = test system: SK-MEL-28
OVCAR-5 = test system: OVCAR-5
NCI-H460 = test system: NCI-H460
SW-620 = test system: SW-620
Malme-3M = test system: Malme-3M
SR = test system: SR
HCT-116 = test system: HCT-116
MCF7 = test system: MCF7
NCI/ADR-RES = test system: NCI/ADR-RES
SK-OV-3 = test system: SK-OV-3
MDA-N = test system: MDA-N
NCI-H23 = test system: NCI-H23
HOP-62 = test system: HOP-62
KM12 = test system: KM12
UO-31 = test system: UO-31
HT-29 = test system: HT-29
OVCAR-4 = test system: OVCAR-4
T47D = test system: T47D
UACC-257 = test system: UACC-257
SN12C = test system: SN12C
HOP-92 = test system: HOP-92
MDA-MB-435 = test system: MDA-MB-435
K562 = test system: K562
SF-268 = test system: SF-268
SF-539 = test system: SF-539
HCT-15 = test system: HCT-15
OVCAR-8 = test system: OVCAR-8
CCRF-CEM = test system: CCRF-CEM
786-0 = test system: 786-0
RPMI-8226 = test system: RPMI-8226
ACHN = test system: ACHN
EKVX = test system: EKVX
RXF 393 = test system: RXF 393
SK-MEL-2 = test system: SK-MEL-2
LOX IMVI = test system: LOX IMVI
M14 = test system: M14
NCI-H226 = test system: NCI-H226
SK-MEL-5 = test system: SK-MEL-5

Q: Which GI50 (MDA-MB-231) does the source give for `c1ccc(-c2cn3c(nc4ccccc43)c(-c3ccccc3)n2)cc1` here?
A: > 100 µM (inactive)

Q: And the GI50 (TK-10)?
A: > 59.6 µM (inactive)

Q: And the GI50 (A498)?
A: 44.6 µM (inactive)

Q: And the GI50 (IGROV-1)?
A: 42.9 µM (inactive)

Q: What about the GI50 (MOLT-4) of the same compound?
A: > 100 µM (inactive)

Q: What about the GI50 (SNB-75) of the same compound?
A: 14.5 µM (inactive)

Q: What about the GI50 (PC-3) of the same compound?
A: > 57.7 µM (inactive)

Q: What about the GI50 (COLO 205) of the same compound?
A: > 100 µM (inactive)

Q: And the GI50 (OVCAR-3)?
A: > 100 µM (inactive)

Q: And the GI50 (DU-145)?
A: > 100 µM (inactive)

Q: And the GI50 (SF-295)?
A: 14.8 µM (inactive)

Q: What about the GI50 (UACC-62) of the same compound?
A: 12.4 µM (inactive)

Q: What about the GI50 (BT-549) of the same compound?
A: 29.4 µM (inactive)

Q: What about the GI50 (CAKI-1) of the same compound?
A: > 48.9 µM (inactive)

Q: What about the GI50 (A549) of the same compound?
A: > 68.7 µM (inactive)

Q: And the GI50 (HCC 2998)?
A: > 100 µM (inactive)

Q: What about the GI50 (HL-60) of the same compound?
A: > 100 µM (inactive)

Q: What about the GI50 (Hs-578T) of the same compound?
A: 16.3 µM (inactive)

Q: What about the GI50 (U-251) of the same compound?
A: 14.2 µM (inactive)

Q: What about the GI50 (NCI-H522) of the same compound?
A: 35.2 µM (inactive)

Q: What about the GI50 (SNB-19) of the same compound?
A: 16.8 µM (inactive)

Q: What about the GI50 (SK-MEL-28) of the same compound?
A: > 100 µM (inactive)

Q: What about the GI50 (OVCAR-5) of the same compound?
A: > 54.2 µM (inactive)

Q: What about the GI50 (NCI-H460) of the same compound?
A: 58.1 µM (inactive)

Q: What about the GI50 (SW-620) of the same compound?
A: > 100 µM (inactive)

Q: What about the GI50 (Malme-3M) of the same compound?
A: > 96.2 µM (inactive)

Q: And the GI50 (SR)?
A: > 100 µM (inactive)

Q: What about the GI50 (HCT-116) of the same compound?
A: > 86.9 µM (inactive)

Q: And the GI50 (MCF7)?
A: 69.7 µM (inactive)

Q: And the GI50 (NCI/ADR-RES)?
A: 47.6 µM (inactive)

Q: What about the GI50 (SK-OV-3) of the same compound?
A: 10.2 µM (inactive)

Q: What about the GI50 (MDA-N) of the same compound?
A: > 31.6 µM (inactive)

Q: And the GI50 (NCI-H23)?
A: 55.2 µM (inactive)

Q: What about the GI50 (HOP-62) of the same compound?
A: 7.13 µM (inactive)

Q: What about the GI50 (KM12) of the same compound?
A: > 100 µM (inactive)

Q: What about the GI50 (UO-31) of the same compound?
A: 37.7 µM (inactive)

Q: What about the GI50 (HT-29) of the same compound?
A: 71 µM (inactive)

Q: And the GI50 (OVCAR-4)?
A: 4.56 µM (inactive)

Q: What about the GI50 (T47D) of the same compound?
A: > 39.6 µM (inactive)

Q: And the GI50 (UACC-257)?
A: > 100 µM (inactive)

Q: What about the GI50 (SN12C) of the same compound?
A: 65.8 µM (inactive)

Q: What about the GI50 (HOP-92) of the same compound?
A: 16.9 µM (inactive)

Q: And the GI50 (MDA-MB-435)?
A: > 87.7 µM (inactive)

Q: And the GI50 (K562)?
A: > 100 µM (inactive)

Q: What about the GI50 (SF-268) of the same compound?
A: > 50.6 µM (inactive)

Q: And the GI50 (SF-539)?
A: 27.9 µM (inactive)

Q: What about the GI50 (HCT-15) of the same compound?
A: > 100 µM

Q: And the GI50 (OVCAR-8)?
A: 13.3 µM (inactive)

Q: And the GI50 (CCRF-CEM)?
A: > 100 µM (inactive)

Q: What about the GI50 (786-0) of the same compound?
A: 16.1 µM (inactive)

Q: What about the GI50 (RPMI-8226) of the same compound?
A: > 100 µM (inactive)

Q: And the GI50 (ACHN)?
A: > 100 µM (inactive)

Q: And the GI50 (EKVX)?
A: > 100 µM (inactive)

Q: And the GI50 (RXF 393)?
A: > 38 µM (inactive)

Q: And the GI50 (SK-MEL-2)?
A: 30.1 µM (inactive)

Q: What about the GI50 (LOX IMVI) of the same compound?
A: 81.8 µM (inactive)

Q: And the GI50 (M14)?
A: > 100 µM (inactive)

Q: What about the GI50 (NCI-H226) of the same compound?
A: > 60.8 µM (inactive)

Q: And the GI50 (SK-MEL-5)?
A: 84.3 µM (inactive)

Q: What does the source list for `CC(C)C[C@H]1[C@@H](OCc2ccccc2)COS(=O)(=O)N1[C@H](C)c1ccccc1`?
A: GI50 (MDA-MB-231): 48 µM (inactive); GI50 (TK-10): 83 µM (inactive); GI50 (A498): > 100 µM (inactive); GI50 (IGROV-1): > 100 µM (inactive); GI50 (MOLT-4): 3.8 µM (inactive); GI50 (SNB-75): > 46.7 µM (inactive); GI50 (PC-3): 7.38 µM (inactive); GI50 (COLO 205): > 72.6 µM (inactive); GI50 (OVCAR-3): 20.6 µM (inactive); GI50 (DU-145): 37.9 µM (inactive); GI50 (SF-295): 9.12 µM (inactive); GI50 (UACC-62): > 100 µM (inactive); GI50 (BT-549): > 58.2 µM (inactive); GI50 (CAKI-1): > 100 µM (inactive); GI50 (A549): 29.5 µM (inactive); GI50 (HCC 2998): > 100 µM (inactive); GI50 (HL-60): 6.11 µM (inactive); GI50 (Hs-578T): > 100 µM (inactive); GI50 (U-251): 15.2 µM (inactive); GI50 (NCI-H522): 7.83 µM (inactive); GI50 (SNB-19): > 46 µM (inactive); GI50 (SK-MEL-28): > 100 µM (inactive); GI50 (OVCAR-5): > 100 µM (inactive); GI50 (NCI-H460): 11.7 µM (inactive); GI50 (SW-620): > 100 µM (inactive); GI50 (Malme-3M): > 27.2 µM (inactive); GI50 (SR): 3.24 µM (inactive); GI50 (HCT-116): 5.24 µM (inactive); GI50 (MCF7): 21.7 µM (inactive); GI50 (NCI/ADR-RES): 52.2 µM (inactive); GI50 (SK-OV-3): > 93.1 µM (inactive); GI50 (MDA-N): > 78.5 µM (inactive); GI50 (NCI-H23): 6.98 µM (inactive); GI50 (HOP-62): > 84.1 µM (inactive); GI50 (KM12): 47.1 µM (inactive); GI50 (UO-31): 9.95 µM (inactive); GI50 (HT-29): 26.9 µM (inactive); GI50 (OVCAR-4): > 100 µM (inactive); GI50 (T47D): 2.9 µM (inactive); GI50 (UACC-257): 20 µM (inactive); GI50 (SN12C): 75.3 µM (inactive); GI50 (HOP-92): > 100 µM (inactive); GI50 (MDA-MB-435): 49.7 µM (inactive); GI50 (K562): 5.24 µM (inactive); GI50 (SF-268): > 93.1 µM (inactive); GI50 (SF-539): > 100 µM (inactive); GI50 (HCT-15): 29.1 µM; GI50 (OVCAR-8): > 61.5 µM (inactive); GI50 (CCRF-CEM): 8.71 µM (inactive); GI50 (786-0): 23.4 µM (inactive); GI50 (RPMI-8226): 4.05 µM (inactive); GI50 (ACHN): 48 µM (inactive); GI50 (EKVX): 22.1 µM (inactive); GI50 (RXF 393): 29.1 µM (inactive); GI50 (SK-MEL-2): 44.6 µM (inactive); GI50 (LOX IMVI): 13.4 µM (inactive); GI50 (M14): > 100 µM (inactive); GI50 (NCI-H226): > 92 µM (inactive); GI50 (SK-MEL-5): 5.55 µM (inactive)
